Source: US20080058405A1, “REPLICATING MELATONIN SIGNALING IN A FETUS, NEWBORN OR SUCKLING INFANT” (OREGON HEALTH & SCIENCE UNIVERSITY, priority 2006, published 2008)
“Also recorded” adds a separate entry of the source.

Key:
[1] = system: newborn infant; assay: Manipulation of the sleep/wake circadian rhythm of a newborn infant by exogenous melatonin given orally to the nursing mother (suckled or pumped breast milk); type: in vivo, human
Description: The following log includes nighttime sleep data of the infant taking nothing else by mouth except thrush medication during about weeks 2-4. […] All melatonin used in this Example was an immediate-release formulation taken by the […] orally.
• Sunday (10 days post-partum, first day of exogenous melatonin administration in breast milk): • At 20:50 […] took 3 mg melatonin orally. At 21:20 breast-fed baby. […] Monday: • At 19:45, […] took 1.05 mg. […] Tuesday: • At 20:30, […] took 0.9 mg and fed at 9. […] Wednesday: • At 20:45, […] took 3 mg. […] Thursday. • […] took 3 mg at 20:45. […] Week 2 Sunday. • […] took 3 mg at 20:30 but ate immediately after. […] Tuesday: • […] took 3 mg at 20:30. […] Wednesday • […] took 3 mg at 20:30. […] Friday • […] took 3 mg at 20:30. […] Saturday: • […] took 3 mg at 20:30. […] Week 3 Sunday: • […] took 3 mg at 15:00. […] Monday • […] took 3 mg at 17:20. […] Tuesday: • […] took 3 mg at 17:00. […] Wednesday: • […] took 1.8 mg at 17:45. […] Thursday: • […] took 3 mg at 17:00. […] Friday: • […] took 3 mg at 20:30. […] Saturday: • […] took 2 mg at 19:15.

[2] = adults, orally-administered melatonin; cited from earlier work
[3] = same maternal dosing, infant fed by breast milk

## COc1ccc2[nH]cc(CCNC(C)=O)c2c1 [melatonin, N-acetyl-5-methoxytryptamine]
[1]; 10 days post-partum, mother took 3 mg orally at 20:50, baby breast-fed at 21:20
  infant sleep period after first feeding with exogenous melatonin in breast milk: slept between 22:00 and 04:00
[1]; Week 5 Monday, parent took 3 mg at 17:00
  improvement of colic versus its worst: about 40%
[1]; parent took 1.8-12 mg (usually 3 mg) in the evening, sometimes 1-2 mg in the middle of the night or 0.5 mg towards end of night, immediate-release, oral, infant fed by suckling or pumped breast milk
  sleep of mother and newborn: better sleep for both mother and newborn
[1]; [3]
  actual breast-feeding time during the night: no reduction
  development of the infant's independent ability to synchronize to the ambient light/dark cycle: appeared to accelerate development; also recorded: caused early synchronization
  evening/nighttime colic in the infant: less evening/nighttime colic
  weight gain in the baby: steady weight gain; also recorded: excellent on melatonin, better than before melatonin
[2]
  melatonin bioavailability: 1-15%
